Laboratory results as given in patent publication US12286403B2, “Formulated and/or co-formulated liposome compositions containing IDO antagonist prodrugs useful in the treatment of cancer and methods thereof” (Nammi Therapeutics, Inc., priority 2019, dated 2025).

Biological target: T1, IDO-1 (Homo sapiens, UniProt P14902)
T1 construct: expressed in transfected cells; host or cells: HEK293 (hIDO1-HEK293 recombinant cells)
Test: IDO-1 activity by kynurenine levels in hIDO1-HEK293 recombinant cells
Type: cell-based
Details: 10 uM, 24 hours
Method: IDO-1 activity was measured indirectly using kynurenine levels using the following protocols. Briefly, hIDO1-HEK293 recombinant cells were plated overnight. The following day the cells were left untreated or treated with 10 uM of ID3, ID3-SA or LNP-ID3-SA for twenty-four (24) hours. The IDO-1 activity was measured by indirect measurement of kynurenine levels by analyzing absorption at 480 nm using IDO1 Cellular Activity QuickDetect™ kit (PBSBioscience, San Diego, CA).

T1 sequence (P14902 whole entry): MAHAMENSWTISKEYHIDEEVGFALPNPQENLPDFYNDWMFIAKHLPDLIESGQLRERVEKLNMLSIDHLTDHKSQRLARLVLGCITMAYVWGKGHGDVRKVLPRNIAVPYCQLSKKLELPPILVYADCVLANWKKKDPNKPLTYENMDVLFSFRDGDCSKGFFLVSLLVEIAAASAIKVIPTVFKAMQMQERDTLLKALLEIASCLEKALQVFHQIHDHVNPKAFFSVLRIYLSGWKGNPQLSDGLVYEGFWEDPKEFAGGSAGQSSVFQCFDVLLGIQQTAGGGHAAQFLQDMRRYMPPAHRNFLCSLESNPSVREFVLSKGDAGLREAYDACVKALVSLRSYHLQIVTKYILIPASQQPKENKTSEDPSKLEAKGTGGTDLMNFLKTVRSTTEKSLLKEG

## CCCCCCCCCCCCCCCCCC(=O)OCOC(=O)N(C(=O)[C@H](C)[C@H]1CC[C@@H](c2ccnc3ccc(F)cc32)CC1)c1ccc(Cl)cc1 [ID3-SA]
  IDO-1 activity (kynurenine levels, absorption at 480 nm): inhibited IDO-1 activity
